From US8889712B2, “IAP antagonists” (Bristol-Myers Squibb Company, priority 2012, dated 2014) come the findings set out here.

The target of assay [1] is T1, XIAP BIR3 (Homo sapiens, UniProt P98170).
T1 construct: His-BIR3 (241-356, XIAP)
The experiment in a line: XIAP-BIR3/SMAC Homogeneous Time Resolved Fluorescence (HTRF) Assay. Type of assay: binding. The procedure:
A. XIAP-BIR3/SMAC Homogeneous Time Resolved Fluorescence (HTRF) Assay Assays were performed in black, flat-bottom, 384-well plates. […] The reaction was incubated at room temperature for 60 minutes, following which 10 μl of mouse anti-6×His-terbium labeled Fab (Medarex, Cis-bio) was added to the reaction (40 μl) for an additional 30 minute incubation. […] Compounds were dissolved at 3 mM in dimethylsulfoxide (DMSO) and evaluated at eleven serially diluted concentrations. IC50 and Ki values were derived by non-linear regression analysis.
On the technique in general: TR-FRET usually uses a lanthanide donor and a delayed reading to cut background.

For assay [2], the target named is T2, XIAP BIR2-3 (Homo sapiens, UniProt P98170, C202A/C213G).
T2 construct: His-BIR2-3 (125-356, C202A/C213G, XIAP)
The experiment in a line: XIAP-BIR2-3 dimeric SMAC Peptide Homogeneous Time Resolved Fluorescence (HTRF) Assay. Type of assay: binding. As to the method: B. […] Assays were performed in black, flat-bottom, 384-well plates. […] Compounds were dissolved at 3 mM in dimethylsulfoxide (DMSO) and evaluated at eleven serially diluted concentrations. IC50 and Ki values were derived by non-linear regression analysis.

The mark [3] stands for this setting: 1 nM N-His-BIR3 (241-356, XIAP), 5 nM fluorescein labeled SMAC peptide, HTRF signal, read-out: XIAP BIR3 IC50.
Setting [4] is: 0.5 nM N-His-BIR2-3 (125-356, C202A/C213G, XIAP), 20 nM fluorescein labeled dimeric SMAC peptide, HTRF signal, read-out: XIAP BIR2-3 IC50.

The structures appear in SMILES notation. Like-named read-outs stand apart in the source and are kept apart here.

T1 sequence (P98170 241-356): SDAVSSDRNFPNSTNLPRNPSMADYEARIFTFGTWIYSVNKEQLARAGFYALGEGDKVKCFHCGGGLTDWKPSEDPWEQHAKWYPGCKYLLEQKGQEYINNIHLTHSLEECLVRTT
T2 sequence (P98170 125-356 C202A/C213G): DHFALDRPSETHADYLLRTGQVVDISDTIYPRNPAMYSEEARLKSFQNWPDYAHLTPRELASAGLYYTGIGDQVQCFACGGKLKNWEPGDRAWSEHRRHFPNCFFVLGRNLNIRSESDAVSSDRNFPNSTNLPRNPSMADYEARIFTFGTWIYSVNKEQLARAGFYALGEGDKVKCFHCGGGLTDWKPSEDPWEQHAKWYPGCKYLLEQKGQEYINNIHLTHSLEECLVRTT

Regarding `CN[C@@H](C)C(=O)N[C@H](C(=O)N1CC(c2ccc3c(c2)CN(C(=O)[C@@H](NC(=O)[C@H](C)NC)C(C)(C)C)[C@H](C(=O)NC2CCCc4ccccc42)C3)C[C@H]1C(=O)NC(Cc1ccccc1)C(=O)NCc1ccc(OC)cc1)C(C)(C)C` (stereo in doubt) [Example 70, (S)-2-((S)-3,3-Dimethyl-2-((S)-2-(methylamino)propanamido)butanoyl)-7-((3S,5S)-1-((S)-3,3-dimethyl-2-((S)-2-(methylamino)propanamido)butanoyl)-5-(((S)-1-((4-methoxybenzyl)amino)-1-oxo-3-phenylpropan-2-yl)carbamoyl)pyrrolidin-3-yl)-N-((R)-1,2,3,4-tetrahydronaphthalen-1-yl)-1,2,3,4-tetrahydroisoquinoline-3-carboxamide], the IC50 – broadly, the concentration that inhibits the measured activity by half – in assay [1] (setting [3]) worked out at 8.9 nM; in assay [2] (setting [4]), 2.2 nM.

Regarding `CN[C@@H](C)C(=O)N[C@H](C(=O)N1CC(c2ccc3c(c2)CN(C(=O)[C@@H](NC(=O)[C@H](C)NC)C(C)(C)C)[C@H](C(=O)NC2CCCc4ccccc42)C3)C[C@H]1C(=O)NC(Cc1ccccc1)C(=O)Nc1ccc(F)cc1)C(C)(C)C` (stereo in doubt) [Example 71, (S)-2-((S)-3,3-Dimethyl-2-((S)-2-(methylamino)propanamido)butanoyl)-7-((3S,5S)-1-((S)-3,3-dimethyl-2-((S)-2-(methylamino)propanamido)butanoyl)-5-(((S)-1-((4-fluorophenyl)amino)-1-oxo-3-phenylpropan-2-yl)carbamoyl)pyrrolidin-3-yl)-N-((R)-1,2,3,4-tetrahydronaphthalen-1-yl)-1,2,3,4-tetrahydroisoquinoline-3-carboxamide], the IC50 in assay [1] (setting [3]) worked out at 5.6 nM; in assay [2] (setting [4]), 1.5 nM.

As for `CN[C@@H](C)C(=O)N[C@H](C(=O)N1CC(c2ccc3c(c2)CN(C(=O)[C@@H](NC(=O)[C@H](C)NC)C(C)(C)C)[C@H](C(=O)NC2CCCc4ccccc42)C3)C[C@H]1C(=O)NC(Cc1ccccc1)C(=O)N(C)Cc1ccccc1)C(C)(C)C` (stereo in doubt) [Example 72, (S)-7-((3S,5S)-5-(((S)-1-(Benzyl(methyl)amino)-1-oxo-3-phenylpropan-2-yl)carbamoyl)-1-((S)-3,3-dimethyl-2-((S)-2-(methylamino)propanamido)butanoyl)pyrrolidin-3-yl)-2-((S)-3,3-dimethyl-2-((S)-2-(methylamino)propanamido)butanoyl)-N-((R)-1,2,3,4-tetrahydronaphthalen-1-yl)-1,2,3,4-tetrahydroisoquinoline-3-carboxamide], the half-inhibitory concentration (IC50) in assay [1] (setting [3]) stood at 16.5 nM; in assay [2] (setting [4]), 3.3 nM.

Consider `CN[C@@H](C)C(=O)N[C@H](C(=O)N1Cc2cc(C3C[C@@H](C(=O)N[C@H](CO)Cc4ccccc4)N(C(=O)[C@@H](NC(=O)[C@H](C)NC)C(C)(C)C)C3)ccc2C[C@H]1C(=O)NC1CCCc2ccccc21)C(C)(C)C` (stereo in doubt) [Example 74, (S)-2-((S)-3,3-Dimethyl-2-((S)-2-(methylamino)propanamido)butanoyl)-7-((3S,5S)-1-((S)-3,3-dimethyl-2-((S)-2-(methylamino)propanamido)butanoyl)-5-(((S)-1-hydroxy-3-phenylpropan-2-yl)carbamoyl)pyrrolidin-3-yl)-N-((R)-1,2,3,4-tetrahydronaphthalen-1-yl)-1,2,3,4-tetrahydroisoquinoline-3-carboxamide], for which the values for the concentration for half-maximal inhibition (IC50) in assay [1] (setting [3]) and in assay [2] (setting [4]) were 13.6 nM and 2.6 nM, respectively.

Turning to `CN[C@@H](C)C(=O)N[C@H](C(=O)N1Cc2cc(C(=O)N[C@H]3C[C@@H](C(=O)N[C@@H]4CCCc5ccccc54)N(C(=O)[C@@H](NC(=O)[C@H](C)NC)C(C)(C)C)C3)ccc2C[C@H]1C(=O)N[C@@H]1CCCc2ccccc21)C(C)(C)C` [Example 1, (S)-2-((S)-3,3-Dimethyl-2-((S)-2-(methylamino)propanamido)butanoyl)-N^7-((3S,5S)-1-((S)-3,3-dimethyl-2-((S)-2-(methylamino)propanamido)butanoyl)-5-(((R)-1,2,3,4-tetrahydronaphthalen-1-yl)carbamoyl)pyrrolidin-3-yl)-N^3—((R)-1,2,3,4-tetrahydronaphthalen-1-yl)-1,2,3,4-tetrahydroisoquinoline-3,7-dicarboxamide], the IC50 was 11 nM in assay [1] and 3 nM in assay [2].

In the case of `CCN[C@@H](C)C(=O)N[C@H](C(=O)N1Cc2cc(C(=O)N[C@H]3C[C@@H](C(=O)NC4CCCc5ccccc54)N(C(=O)[C@@H](NC(=O)[C@H](C)NC)C(C)(C)C)C3)ccc2C[C@H]1C(=O)NC1CCCc2ccccc21)C(C)(C)C` (stereo partly shown) [Example 2], the IC50 in assay [1] (setting [3]) is 9 nM; in assay [2] (setting [4]), 6 nM.

On to `CC[C@H](NC)C(=O)N[C@H](C(=O)N1Cc2cc(C(=O)N[C@H]3C[C@@H](C(=O)N[C@@H]4CCCc5ccccc54)N(C(=O)[C@@H](NC(=O)[C@H](C)NC)C(C)(C)C)C3)ccc2C[C@H]1C(=O)N[C@@H]1CCCc2ccccc21)C(C)(C)C` [Example 3, (S)-2-((S)-3,3-Dimethyl-2-((S)-2-(methylamino)butanamido)butanoyl)-N^7-((3S,5S)-1-((S)-3,3-dimethyl-2-((S)-2-(methylamino)propanamido)butanoyl)-5-(((R)-1,2,3,4-tetrahydronaphthalen-1-yl)carbamoyl)pyrrolidin-3-yl)-N^3-((R)-1,2,3,4-tetrahydronaphthalen-1-yl)-1,2,3,4-tetrahydroisoquinoline-3,7-dicarboxamide], for which the IC50 in assay [1] (setting [3]) is 6 nM; in assay [2] (setting [4]), 3 nM.

Consider `CN[C@@H](C)C(=O)N[C@H](C(=O)N1C[C@@H](NC(=O)c2ccc3c(c2)CN(C(=O)[C@@H](NC(=O)[C@@H](NC)C(C)C)C(C)(C)C)[C@H](C(=O)N[C@@H]2CCCc4ccccc42)C3)C[C@H]1C(=O)N[C@@H]1CCCc2ccccc21)C(C)(C)C` [Example 4, (S)-N^7-((3S,5S)-1-((S)-3,3-Dimethyl-2-((S)-2-(methylamino)propanamido)butanoyl)-5-(((R)-1,2,3,4-tetrahydronaphthalen-1-yl)carbamoyl)pyrrolidin-3-yl)-2-((S)-3,3-dimethyl-2-((S)-3-methyl-2-(methylamino)butanamido)butanoyl)-N^3-((R)-1,2,3,4-tetrahydronaphthalen-1-yl)-1,2,3,4-tetrahydroisoquinoline-3,7-dicarboxamide], for which the concentration for half-maximal inhibition (IC50) in assay [1] (setting [3]) came out at 10 nM; in assay [2] (setting [4]) it was 11 nM.

As for `CN[C@@H](C)C(=O)N[C@H](C(=O)N1C[C@@H](NC(=O)c2ccc3c(c2)CN(C(=O)[C@@H](NC(=O)[C@@H](NC)C2CC2)C(C)(C)C)[C@H](C(=O)N[C@@H]2CCCc4ccccc42)C3)C[C@H]1C(=O)N[C@@H]1CCCc2ccccc21)C(C)(C)C` [Example 5, (S)-2-((S)-2-((S)-2-Cyclopropyl-2-(methylamino)acetamido)-3,3-dimethylbutanoyl)-N^7-((3S,5S)-1-((S)-3,3-dimethyl-2-((S)-2-(methylamino)propanamido)butanoyl)-5-(((R)-1,2,3,4-tetrahydronaphthalen-1-yl)carbamoyl)pyrrolidin-3-yl)-N^3-((R)-1,2,3,4-tetrahydronaphthalen-1-yl)-1,2,3,4-tetrahydroisoquinoline-3,7-dicarboxamide], the IC50 in assay [1] (setting [3]) was 14 nM; in assay [2] (setting [4]), 13 nM.

Take `CN[C@@H](C)C(=O)N[C@H](C(=O)N1Cc2cc(C(=O)N[C@H]3C[C@@H](C(=O)N[C@@H]4CCCc5ccccc54)N(C(=O)[C@@H](NC(=O)[C@H](C)NC)C(C)(C)C)C3)ccc2C[C@H]1C(=O)N[C@@H]1CCCc2ccccc21)[C@@H](C)OC` [Example 7, (S)-N^7-((3S,5S)-1-((S)-3,3-Dimethyl-2-((S)-2-(methylamino)propanamido)butanoyl)-5-(((R)-1,2,3,4-tetrahydronaphthalen-1-yl)carbamoyl)pyrrolidin-3-yl)-2-((2S,3R)-3-methoxy-2-((S)-2-(methylamino)propanamido)butanoyl)-N^3-((R)-1,2,3,4-tetrahydronaphthalen-1-yl)-1,2,3,4-tetrahydroisoquinoline-3,7-dicarboxamide]: the IC50 in assay [1] (setting [3]) and in assay [2] (setting [4]) was 6 nM throughout.

Consider `CCC(CC)[C@H](NC(=O)[C@H](C)NC)C(=O)N1Cc2cc(C(=O)N[C@H]3C[C@@H](C(=O)N[C@@H]4CCCc5ccccc54)N(C(=O)[C@@H](NC(=O)[C@H](C)NC)C(C)(C)C)C3)ccc2C[C@H]1C(=O)N[C@@H]1CCCc2ccccc21` [Example 8, (S)-N^7-((3S,5S)-1-((S)-3,3-Dimethyl-2-((S)-2-(methylamino)propanamido)butanoyl)-5-(((R)-1,2,3,4-tetrahydronaphthalen-1-yl)carbamoyl)pyrrolidin-3-yl)-2-((S)-3-ethyl-2-((S)-2-(methylamino)propanamido)pentanoyl)-N^3-((R)-1,2,3,4-tetrahydronaphthalen-1-yl)-1,2,3,4-tetrahydroisoquinoline-3,7-dicarboxamide], for which the results for the IC50 in assay [1] (setting [3]) and in assay [2] (setting [4]) were 11 nM and 2 nM, respectively.
